Test results from ChEMBL document CHEMBL1201862, “PubChem BioAssay data set” (2004).
Blank lines part the entries; values can stand above or below the compound they belong to. Active and inactive are the calls of the source.

Columns and labels:
[1] = target: T1, Leucine aminopeptidase (Plasmodium falciparum 3D7, UniProt Q8IL11); experiment: P. falciparum M17LAP inhibitors, primary screen, biochemical, fluorogenic H-Leu-NHMec substrate, 1536-well (AID 1619); assay type: functional
T1 sequence (Q8IL11 whole entry): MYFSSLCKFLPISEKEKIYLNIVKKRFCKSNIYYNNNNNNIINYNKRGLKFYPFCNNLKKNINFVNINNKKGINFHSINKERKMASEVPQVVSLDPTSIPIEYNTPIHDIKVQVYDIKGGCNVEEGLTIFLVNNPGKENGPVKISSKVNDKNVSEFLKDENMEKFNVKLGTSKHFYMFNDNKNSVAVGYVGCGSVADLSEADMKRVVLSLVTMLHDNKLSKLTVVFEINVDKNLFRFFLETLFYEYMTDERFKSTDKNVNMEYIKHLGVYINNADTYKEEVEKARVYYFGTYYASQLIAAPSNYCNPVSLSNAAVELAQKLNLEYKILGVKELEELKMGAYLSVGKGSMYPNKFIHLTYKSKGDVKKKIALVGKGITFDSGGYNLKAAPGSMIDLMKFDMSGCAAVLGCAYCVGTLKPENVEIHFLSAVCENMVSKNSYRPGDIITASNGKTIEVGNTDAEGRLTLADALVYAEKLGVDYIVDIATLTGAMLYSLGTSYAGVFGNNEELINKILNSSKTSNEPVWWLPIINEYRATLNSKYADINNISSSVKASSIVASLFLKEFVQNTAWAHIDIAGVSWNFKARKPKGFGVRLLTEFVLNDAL

[2] = target: T2, Alkaline phosphatase, tissue-nonspecific isozyme (Homo sapiens, UniProt P05186); experiment: potency against alkaline phosphatase TNAP – biochemical, luminescent, dose response, SAR follow-up (AID 1056)
T2 sequence (P05186 whole entry): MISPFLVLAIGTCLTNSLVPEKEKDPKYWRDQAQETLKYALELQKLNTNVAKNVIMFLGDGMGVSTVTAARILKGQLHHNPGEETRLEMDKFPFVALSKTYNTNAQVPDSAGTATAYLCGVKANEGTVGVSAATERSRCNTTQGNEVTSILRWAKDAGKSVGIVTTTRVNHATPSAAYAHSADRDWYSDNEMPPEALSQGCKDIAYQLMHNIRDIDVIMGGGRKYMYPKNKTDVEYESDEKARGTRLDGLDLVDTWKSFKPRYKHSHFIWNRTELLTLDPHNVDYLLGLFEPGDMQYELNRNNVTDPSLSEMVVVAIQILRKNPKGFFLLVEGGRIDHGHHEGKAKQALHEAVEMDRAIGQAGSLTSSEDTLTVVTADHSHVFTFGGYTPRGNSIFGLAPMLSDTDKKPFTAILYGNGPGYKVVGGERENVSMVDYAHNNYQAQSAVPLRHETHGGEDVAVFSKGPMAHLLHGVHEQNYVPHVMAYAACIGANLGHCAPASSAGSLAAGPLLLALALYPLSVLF

[3] = target: T2, Alkaline phosphatase, tissue-nonspecific isozyme; experiment: activation of tissue-nonspecific alkaline phosphatase – biochemical, TNAP isozyme, mouse IAP uHTS hits, selectivity assay for mouse IAP activator project, dose response (AID 488880); assay type: functional
[4] = target: Glyceraldehyde-3-phosphate dehydrogenase (Homo sapiens, UniProt P04406)
Chain of Glyceraldehyde-3-phosphate dehydrogenase (P04406 whole entry): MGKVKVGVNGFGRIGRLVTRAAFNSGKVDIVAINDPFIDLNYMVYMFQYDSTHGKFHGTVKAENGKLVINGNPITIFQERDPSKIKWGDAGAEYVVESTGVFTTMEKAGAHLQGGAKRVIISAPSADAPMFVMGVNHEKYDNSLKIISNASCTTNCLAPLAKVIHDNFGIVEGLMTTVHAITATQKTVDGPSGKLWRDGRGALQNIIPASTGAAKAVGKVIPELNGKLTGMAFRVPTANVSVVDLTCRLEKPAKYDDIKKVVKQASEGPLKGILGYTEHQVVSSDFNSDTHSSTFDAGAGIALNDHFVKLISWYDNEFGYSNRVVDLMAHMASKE

[5] = target: T3, Bcl-2-like protein 10 (Homo sapiens, UniProt Q9HD36); experiment: Bcl-B/TR3 peptide binding disruption – biochemical, fluorescence polarization, FITC-TR3 peptide, selectivity assay for Bfl-1 inhibitor project, primary screen (AID 748);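 note: fluorescence polarization from a fluorescein-labelled TR3 peptide binding purified Bcl-B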
T3 sequence (Q9HD36 whole entry): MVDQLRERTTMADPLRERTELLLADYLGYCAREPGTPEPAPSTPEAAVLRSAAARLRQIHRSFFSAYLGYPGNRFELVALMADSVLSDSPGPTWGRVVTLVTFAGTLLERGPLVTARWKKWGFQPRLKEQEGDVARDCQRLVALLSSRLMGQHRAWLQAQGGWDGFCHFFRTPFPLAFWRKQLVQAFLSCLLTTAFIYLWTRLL

[6] = target: Estrogen receptor beta (Homo sapiens, UniProt Q92731); experiment: blockers of SRC-3 recruitment to ERβ – biochemical, ELISA, streptavidin-HRP readout, orthogonal assay, confirmation (AID 1060)
Chain of Estrogen receptor beta (Q92731 whole entry): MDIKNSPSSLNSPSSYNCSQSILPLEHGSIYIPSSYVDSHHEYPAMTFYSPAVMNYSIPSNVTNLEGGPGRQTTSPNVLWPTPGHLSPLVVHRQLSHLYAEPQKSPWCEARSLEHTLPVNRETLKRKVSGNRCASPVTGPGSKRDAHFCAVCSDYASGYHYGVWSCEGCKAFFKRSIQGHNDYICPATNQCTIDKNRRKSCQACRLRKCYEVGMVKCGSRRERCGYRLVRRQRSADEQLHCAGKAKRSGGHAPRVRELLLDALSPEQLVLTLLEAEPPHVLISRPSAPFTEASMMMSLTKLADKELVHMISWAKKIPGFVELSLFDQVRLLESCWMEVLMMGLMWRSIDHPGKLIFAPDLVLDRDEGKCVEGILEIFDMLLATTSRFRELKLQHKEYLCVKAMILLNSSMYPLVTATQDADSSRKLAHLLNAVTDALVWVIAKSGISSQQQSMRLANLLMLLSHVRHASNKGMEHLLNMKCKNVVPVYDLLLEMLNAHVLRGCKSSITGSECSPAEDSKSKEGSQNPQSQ

[7] = target: Intestinal-type alkaline phosphatase (Mus musculus, UniProt P24822); experiment: mouse intestinal alkaline phosphatase activators, dose response, biochemical, luminescence, uHTS hits (AID 488783); assay type: functional
Chain of Intestinal-type alkaline phosphatase (Mus musculus, UniProt P24822) (P24822 whole entry): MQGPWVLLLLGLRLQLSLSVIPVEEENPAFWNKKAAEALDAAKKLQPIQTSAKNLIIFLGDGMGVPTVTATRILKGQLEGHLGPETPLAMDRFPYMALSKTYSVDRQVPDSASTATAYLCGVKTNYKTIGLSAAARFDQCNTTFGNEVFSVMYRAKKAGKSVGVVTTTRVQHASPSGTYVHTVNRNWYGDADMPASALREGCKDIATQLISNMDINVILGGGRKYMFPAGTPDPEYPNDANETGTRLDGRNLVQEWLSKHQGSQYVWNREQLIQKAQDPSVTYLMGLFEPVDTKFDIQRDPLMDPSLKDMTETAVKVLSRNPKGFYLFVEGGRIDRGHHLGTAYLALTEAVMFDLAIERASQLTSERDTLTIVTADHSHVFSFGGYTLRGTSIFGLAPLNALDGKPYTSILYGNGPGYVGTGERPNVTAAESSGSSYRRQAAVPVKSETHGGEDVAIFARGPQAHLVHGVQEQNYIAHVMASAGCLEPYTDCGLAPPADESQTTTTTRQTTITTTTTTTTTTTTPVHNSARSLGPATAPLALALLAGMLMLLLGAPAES

[8] = target: Intestinal-type alkaline phosphatase (Homo sapiens, UniProt P09923); experiment: activation of human intestinal alkaline phosphatase – biochemical, dose response (AID 488873); assay type: functional
Chain of Intestinal-type alkaline phosphatase (Homo sapiens, UniProt P09923) (P09923 whole entry): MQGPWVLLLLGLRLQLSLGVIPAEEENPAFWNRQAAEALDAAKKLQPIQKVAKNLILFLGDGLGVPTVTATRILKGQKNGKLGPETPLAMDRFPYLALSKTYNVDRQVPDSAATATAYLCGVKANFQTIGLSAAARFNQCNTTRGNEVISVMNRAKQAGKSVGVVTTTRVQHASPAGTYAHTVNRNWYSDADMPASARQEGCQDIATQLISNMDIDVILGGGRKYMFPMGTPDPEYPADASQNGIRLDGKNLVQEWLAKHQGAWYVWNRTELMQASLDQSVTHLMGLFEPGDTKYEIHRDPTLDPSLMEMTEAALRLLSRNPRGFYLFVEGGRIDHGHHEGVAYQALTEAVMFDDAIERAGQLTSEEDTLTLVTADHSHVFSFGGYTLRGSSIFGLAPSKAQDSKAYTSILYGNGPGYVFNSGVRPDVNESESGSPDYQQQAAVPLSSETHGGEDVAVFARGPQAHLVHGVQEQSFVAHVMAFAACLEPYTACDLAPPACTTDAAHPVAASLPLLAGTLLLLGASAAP

[9] = target: Alkaline phosphatase, placental type (Homo sapiens, UniProt P05187); experiment: human placental alkaline phosphatase inhibition – biochemical, luminescence, confirmation (AID 1512); assay type: functional
[10] = target: Large T antigen (Simian virus 40, UniProt P03070); assay type: functional, Betapolyomavirus macacae;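 note: Confirmatory-stage PubChem screen for compounds that inhibit SV40 T antigen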
Chain of Large T antigen (P03070 whole entry): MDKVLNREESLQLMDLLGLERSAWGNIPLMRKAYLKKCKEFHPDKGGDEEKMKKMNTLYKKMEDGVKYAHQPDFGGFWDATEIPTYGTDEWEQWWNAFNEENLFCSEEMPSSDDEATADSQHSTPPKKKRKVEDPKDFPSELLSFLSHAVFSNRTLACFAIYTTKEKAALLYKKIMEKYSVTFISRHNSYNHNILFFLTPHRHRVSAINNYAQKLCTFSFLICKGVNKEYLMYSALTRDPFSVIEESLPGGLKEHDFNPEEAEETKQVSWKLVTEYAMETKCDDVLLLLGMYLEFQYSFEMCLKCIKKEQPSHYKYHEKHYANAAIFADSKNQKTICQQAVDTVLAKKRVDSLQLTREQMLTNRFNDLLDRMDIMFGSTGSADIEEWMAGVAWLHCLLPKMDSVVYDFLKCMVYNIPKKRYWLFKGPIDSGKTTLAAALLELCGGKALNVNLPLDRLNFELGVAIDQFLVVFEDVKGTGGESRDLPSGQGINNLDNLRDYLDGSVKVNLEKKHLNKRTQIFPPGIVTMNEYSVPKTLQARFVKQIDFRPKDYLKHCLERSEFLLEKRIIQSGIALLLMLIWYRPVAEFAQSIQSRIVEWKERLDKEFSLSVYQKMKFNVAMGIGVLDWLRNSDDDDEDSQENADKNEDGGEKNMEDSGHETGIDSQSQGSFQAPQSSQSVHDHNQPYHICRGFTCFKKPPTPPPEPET

[11] = system: HEK293; experiment: cells; assay type: functional, cell-based; conditions: Homo sapiens
[12] = target: Nucleotide-binding oligomerization domain-containing protein 1 (Homo sapiens, UniProt Q9Y239); experiment: blockers of NOD1 pathway activity – revised, SAR follow-up (AID 2333); assay type: functional
Chain of Nucleotide-binding oligomerization domain-containing protein 1 (Q9Y239 whole entry, the tested form may be a part): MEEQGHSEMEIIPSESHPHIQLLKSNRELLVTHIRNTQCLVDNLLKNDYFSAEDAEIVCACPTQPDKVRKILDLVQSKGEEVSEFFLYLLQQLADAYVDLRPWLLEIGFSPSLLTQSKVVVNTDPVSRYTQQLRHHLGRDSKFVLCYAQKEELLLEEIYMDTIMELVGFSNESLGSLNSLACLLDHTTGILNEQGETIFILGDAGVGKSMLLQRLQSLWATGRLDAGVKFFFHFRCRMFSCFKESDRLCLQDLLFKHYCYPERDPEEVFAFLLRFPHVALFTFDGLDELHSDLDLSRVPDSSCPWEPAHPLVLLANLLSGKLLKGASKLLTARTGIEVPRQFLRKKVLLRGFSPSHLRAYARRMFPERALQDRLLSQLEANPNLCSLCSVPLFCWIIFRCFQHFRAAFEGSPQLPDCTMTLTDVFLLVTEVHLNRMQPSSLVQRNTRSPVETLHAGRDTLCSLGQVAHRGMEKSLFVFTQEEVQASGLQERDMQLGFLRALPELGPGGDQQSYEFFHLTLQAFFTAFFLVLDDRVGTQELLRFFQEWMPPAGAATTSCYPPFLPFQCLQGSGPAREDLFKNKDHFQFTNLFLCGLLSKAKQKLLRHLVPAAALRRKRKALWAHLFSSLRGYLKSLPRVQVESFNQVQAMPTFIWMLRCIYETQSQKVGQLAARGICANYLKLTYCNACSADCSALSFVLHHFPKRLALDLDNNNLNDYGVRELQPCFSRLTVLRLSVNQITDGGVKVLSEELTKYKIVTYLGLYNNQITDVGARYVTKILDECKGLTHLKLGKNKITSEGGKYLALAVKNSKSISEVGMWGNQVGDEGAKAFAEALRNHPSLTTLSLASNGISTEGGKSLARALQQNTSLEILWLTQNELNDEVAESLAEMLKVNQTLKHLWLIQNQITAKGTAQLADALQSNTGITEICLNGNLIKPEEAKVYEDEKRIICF

[13] = target: Nucleotide-binding oligomerization domain-containing protein 2 (Homo sapiens, UniProt Q9HC29); experiment: inhibition of NOD2-driven NF-kB reporter – cell-based, luminescence, uHTS, HEK293 (AID 1566); assay type: functional
[14] = reduction of Shn3 3'UTR-driven luciferase in osteoblasts – cell-based, Clone20 osteoblasts, firefly luciferase, cherry-picked, dose response (AID 624132); assay type: functional;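 note: firefly luciferase luminescence from reporter carrying the Shn3 3'UTR in osteoblasts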
[15] = system: HEK293; experiment: inhibition of NOD1-driven NF-kB reporter – cell-based, luminescence, uHTS, primary screen (AID 1578); assay type: functional; conditions: Homo sapiens
[16] = system: HEK293; experiment: cells; conditions: Homo sapiens
[17] = system: HEK293; experiment: NOD2 signaling inhibitors in MDP-stimulated cells, cell-based, uHTS, luminescence (AID 2001); assay type: functional; conditions: Homo sapiens
[18] = loss of viability in HepG2 cells – cell-based, CellTiter-Glo, cherry-picked, cytotoxicity control for Shn3 inhibitor project, dose response (AID 624134); assay type: functional
[19] = system: HEK293; experiment: cells; assay type: functional, cell-based; conditions: Homo sapiens; remark: listed apart in the source
[20] = target: Tumor necrosis factor (Homo sapiens, UniProt P01375); experiment: analog potency on TNFa NF-kB signaling – cell-based, revised, SAR follow-up (AID 2337); assay type: functional
Chain of Tumor necrosis factor (P01375 whole entry): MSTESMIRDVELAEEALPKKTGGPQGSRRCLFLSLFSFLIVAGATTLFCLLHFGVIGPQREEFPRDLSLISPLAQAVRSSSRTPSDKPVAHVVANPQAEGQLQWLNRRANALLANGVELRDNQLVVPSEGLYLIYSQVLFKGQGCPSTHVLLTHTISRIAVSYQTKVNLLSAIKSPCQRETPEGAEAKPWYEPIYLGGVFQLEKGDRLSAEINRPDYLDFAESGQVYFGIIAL

[21] = target: T4, Microphthalmia-associated transcription factor (Homo sapiens, UniProt O75030); experiment: reducers of TRPM1 reporter luminescence, concentration series – cell-based, SK-MEL-5, cherry-picked, set 3, MITF inhibitor project, dose response (AID 493073); assay type: functional;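 note: SK-MEL-5 melanoma cells with luciferase driven by the MITF target TRPM1 promoter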
T4 sequence (O75030 whole entry): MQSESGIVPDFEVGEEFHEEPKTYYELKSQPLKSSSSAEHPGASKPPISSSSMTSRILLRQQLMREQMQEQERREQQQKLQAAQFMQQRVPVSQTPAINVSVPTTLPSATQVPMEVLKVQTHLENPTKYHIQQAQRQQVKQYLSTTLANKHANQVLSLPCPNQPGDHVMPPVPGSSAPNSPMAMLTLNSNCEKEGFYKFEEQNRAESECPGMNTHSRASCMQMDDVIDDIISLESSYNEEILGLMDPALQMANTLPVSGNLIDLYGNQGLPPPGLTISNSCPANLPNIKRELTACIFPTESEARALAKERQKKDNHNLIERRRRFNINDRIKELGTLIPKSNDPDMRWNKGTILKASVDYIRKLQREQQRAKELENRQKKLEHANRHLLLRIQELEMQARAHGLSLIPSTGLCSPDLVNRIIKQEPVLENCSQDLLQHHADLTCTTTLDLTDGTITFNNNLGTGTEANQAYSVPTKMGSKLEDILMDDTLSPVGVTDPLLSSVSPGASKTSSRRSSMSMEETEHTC

[22] = system: HEK293; experiment: cells; assay type: functional, cell-based; conditions: Homo sapiens; remark: listed apart in the source
[23] = non-specific 3'UTR reporter inhibition in Clone20-Shn3RL – cell-based, Renilla luciferase, cherry-picked, counter-screen for Shn3 inhibitor project, dose response (AID 624133); assay type: functional
[24] = target: T5, Trace amine-associated receptor 1 (Homo sapiens, UniProt Q96RJ0); experiment: Fluorescence-based cell-based high throughput dose response assay to identify agonists of the human trace amine associated receptor 1 (TAAR1).; assay type: functional
T5 sequence (Q96RJ0 whole entry): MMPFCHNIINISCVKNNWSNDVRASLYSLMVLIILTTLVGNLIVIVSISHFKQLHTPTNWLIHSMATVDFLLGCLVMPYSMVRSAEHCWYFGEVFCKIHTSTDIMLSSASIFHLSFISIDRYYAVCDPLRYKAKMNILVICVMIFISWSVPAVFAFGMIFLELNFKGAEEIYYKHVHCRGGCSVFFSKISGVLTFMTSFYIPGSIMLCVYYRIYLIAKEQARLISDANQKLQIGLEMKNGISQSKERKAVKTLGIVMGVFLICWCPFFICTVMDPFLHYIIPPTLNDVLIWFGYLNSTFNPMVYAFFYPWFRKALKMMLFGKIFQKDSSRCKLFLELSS

[25] = target: Aspartyl aminopeptidase (Plasmodium falciparum 3D7, UniProt Q8I2J3)
[26] = cells; assay type: functional, cell-based
[27] = target: T6, SUMO-activating enzyme (Homo sapiens, UniProt Q9UBT2); experiment: blockers of SAE1/SAE2–UBC9 SUMO transfer – biochemical, HTRF, uHTS, primary screen (AID 2006); assay type: protein-complex assay
T6 sequence (Q9UBE0 whole entry): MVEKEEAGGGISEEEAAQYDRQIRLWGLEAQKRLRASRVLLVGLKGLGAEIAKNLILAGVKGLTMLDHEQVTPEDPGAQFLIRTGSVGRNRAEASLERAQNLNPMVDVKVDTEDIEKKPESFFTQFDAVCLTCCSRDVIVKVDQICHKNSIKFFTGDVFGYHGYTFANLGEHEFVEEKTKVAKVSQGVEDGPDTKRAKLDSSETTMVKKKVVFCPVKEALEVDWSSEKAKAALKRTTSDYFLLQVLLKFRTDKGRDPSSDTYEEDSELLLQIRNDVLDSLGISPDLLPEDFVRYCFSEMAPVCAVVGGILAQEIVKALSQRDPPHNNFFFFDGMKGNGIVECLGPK
T6 sequence (Q9UBT2 whole entry): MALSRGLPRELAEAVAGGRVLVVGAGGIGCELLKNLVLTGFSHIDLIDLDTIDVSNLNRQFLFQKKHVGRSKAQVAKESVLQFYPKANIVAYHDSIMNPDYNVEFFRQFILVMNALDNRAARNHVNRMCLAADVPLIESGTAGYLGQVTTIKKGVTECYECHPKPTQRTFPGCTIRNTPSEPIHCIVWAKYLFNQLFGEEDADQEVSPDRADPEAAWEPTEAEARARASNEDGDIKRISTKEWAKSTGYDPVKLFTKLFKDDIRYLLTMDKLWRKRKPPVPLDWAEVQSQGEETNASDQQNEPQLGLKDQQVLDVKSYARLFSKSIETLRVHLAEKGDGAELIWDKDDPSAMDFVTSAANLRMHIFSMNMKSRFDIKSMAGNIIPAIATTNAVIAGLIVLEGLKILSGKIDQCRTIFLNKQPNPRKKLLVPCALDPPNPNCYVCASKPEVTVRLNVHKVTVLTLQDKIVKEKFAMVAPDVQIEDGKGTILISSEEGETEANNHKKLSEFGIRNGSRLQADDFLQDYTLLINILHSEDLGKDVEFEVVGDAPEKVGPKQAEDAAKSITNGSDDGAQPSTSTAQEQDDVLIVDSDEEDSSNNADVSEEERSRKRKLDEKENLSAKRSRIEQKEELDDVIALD

[28] = cells; assay type: functional, cell-based; remark: listed apart in the source
[29] = target: Dual specificity tyrosine-phosphorylation-regulated kinase 1A (Rattus norvegicus, UniProt Q63470); assay type: biochemical, Homo sapiens
[30] = target: T5, Trace amine-associated receptor 1; experiment: Counterscreen for agonists of the human trace amine associated receptor 1 (hTAAR1): Fluorescence-based cell-based high throughput dose response assay to identify hTAAR1 agonist that also desensitize TAAR1 receptor response.; assay type: functional
[31] = target: Procathepsin L (Homo sapiens, UniProt P07711)
[32] = target: Albumin (Bos taurus, UniProt P02769); experiment: Counterscreen for inhibitors of T-cell receptor (TCR)-CD3 interaction: Fluorescence-based biochemical high throughput dose response assay to identify inhibitors of T-cell receptor (TCR)-CD3 interaction using a TAMRA-labeled BSA probe.; assay type: functional
[33] = target: T7, Zinc finger protein mex-5 (Caenorhabditis elegans, UniProt Q9XUB2); experiment: potency of MEX-5 RNA-binding blockers – biochemical, C. elegans, fluorescence polarization, dose response (AID 1960)
T7 sequence (Q9XUB2 whole entry): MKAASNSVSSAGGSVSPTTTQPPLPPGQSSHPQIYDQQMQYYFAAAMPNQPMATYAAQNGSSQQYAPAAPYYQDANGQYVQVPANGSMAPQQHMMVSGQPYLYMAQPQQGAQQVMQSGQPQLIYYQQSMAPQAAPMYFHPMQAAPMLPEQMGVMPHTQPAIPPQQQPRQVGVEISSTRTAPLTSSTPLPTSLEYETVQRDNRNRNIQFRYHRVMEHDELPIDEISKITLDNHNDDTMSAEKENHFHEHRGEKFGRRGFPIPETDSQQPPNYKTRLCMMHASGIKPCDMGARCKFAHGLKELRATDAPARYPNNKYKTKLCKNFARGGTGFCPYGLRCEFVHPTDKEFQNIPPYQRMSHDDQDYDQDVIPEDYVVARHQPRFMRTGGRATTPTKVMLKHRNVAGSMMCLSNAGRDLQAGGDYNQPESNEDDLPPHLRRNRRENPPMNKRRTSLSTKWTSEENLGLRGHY

[34] = target: T6, SUMO-activating enzyme; experiment: blockers of UBC9-mediated SUMO conjugation – biochemical, AlphaScreen, SUMOylation inhibitor project, confirmation (AID 2018); assay type: functional
[35] = target: T8, RNA-binding protein pos-1 (Caenorhabditis elegans, UniProt G5EF15); experiment: disruptors of C. elegans POS-1 RNA interaction – biochemical, fluorescence polarization, dose response (AID 1964);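 note: purified POS-1 fused to maltose binding protein made in E. coli; potency of compounds blocking POS-1 binding to fluorescent RNA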
T8 sequence (G5EF15 whole entry): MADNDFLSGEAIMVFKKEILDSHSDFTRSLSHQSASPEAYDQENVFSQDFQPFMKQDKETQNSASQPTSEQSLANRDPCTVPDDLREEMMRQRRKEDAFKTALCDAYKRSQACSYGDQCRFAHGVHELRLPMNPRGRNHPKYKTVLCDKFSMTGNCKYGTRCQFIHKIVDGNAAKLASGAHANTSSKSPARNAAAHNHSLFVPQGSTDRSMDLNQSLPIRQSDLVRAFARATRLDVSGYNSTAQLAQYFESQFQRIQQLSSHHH

IC50 [1]: 8.31 µM (active)
IC50 [2]: 5.9 µM (active)
EC50 [3]: 36.4 µM (active)
IC50 [4]: > 100 µM (not active)
IC50 [5]: 31.5 µM (active)
IC50 [6]: 15.6 µM (not active)
EC50 [7]: 63.4 µM (active)
EC50 [8]: 42.4 µM (active)
IC50 [9]: 11.4 µM (active)
IC50 [10]: 15.2 µM (active)
Structure (SMILES): O=C(CSc1nnc(-c2ccccc2)[nH]1)c1ccc(O)c(O)c1

Structure (SMILES): CCOC(=O)N1CCN(C(=O)c2ccc(Cn3c(=S)[nH]c4ccc(Br)cc4c3=O)cc2)CC1
IC50 [11]: > 20 µM (inactive)
IC50 [12]: 4.77 µM (active)
EC50 [13]: 4.18 µM (active)
AC50 [14]: 1.25 µM (active)
EC50 [15]: 4.23 µM (active)
IC50 [16]: 18.7 µM (active)
IC50 [17]: 6.26 µM (active)
AC50 [18]: > 70 µM (inactive)
IC50 [19]: > 20 µM (inactive)
IC50 [20]: 4.69 µM (active)
AC50 [21]: 3.52 µM (active)
IC50 [22]: 9.03 µM (active)
AC50 [23]: 793 nM (active)

Structure (SMILES): O=C(N/N=C/c1ccc(O)c(O)c1)N/N=C/c1ccc(O)c(O)c1
EC50 [24]: 647 nM (active)
EC50 [3]: 79.4 µM (active)
IC50 [25]: 2.79 µM (active)
EC50 [26]: > 29.9 µM (inactive)
IC50 [27]: 2.11 µM (active)
IC50 [28]: > 29.9 µM (inactive)
AC50 [29]: 1.63 µM (active)
EC50 [7]: 4.96 µM (active)
IC50 [30]: > 9.97 µM (active)
IC50 [31]: > 59.6 µM (not active)
IC50 [32]: > 94.1 µM (inactive)
EC50 [8]: 66.2 µM (active)
IC50 [10]: 0.73 µM (active)
EC50 [33]: 4.86 µM (inconclusive)
IC50 [34]: 690 nM (active)
EC50 [35]: 16.2 µM (active)
